Results from PubChem BioAssay (NCI).
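Values below derive from 48-hour exposures of cells grown in 96-well plates, with endpoints linearly interpolated between the two concentrations bracketing the appropriate inhibition level. GI50 = concentration required for 50% inhibition of growth. TGI: total growth inhibition.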

Columns and labels:
Assay in all cases: NCI tumour cell line growth inhibition, 48 h
[1] = system: MDA-MB-435
[2] = system: NCI-H226 lung
[3] = system: OVCAR-3 ovarian
[4] = system: SK-MEL-5 melanoma
[5] = system: KM12 colon
[6] = system: M14 melanoma
[7] = system: MCF7 breast
[8] = system: SW-620 colon
[9] = system: T-47D breast
[10] = system: HCC-2998 colon
[11] = system: NCI/ADR-RES ovarian
[12] = system: LOX IMVI melanoma
[13] = system: CCRF-CEM leukemia
[14] = system: HT29 colon
[15] = system: SNB-19 CNS
[16] = system: A549 NSCLC
[17] = system: ACHN renal
[18] = system: OVCAR-8 ovarian
[19] = system: CAKI-1 renal
[20] = system: A498 renal
[21] = system: HCT-116 colon
[22] = system: OVCAR-5 ovarian
[23] = system: NCI-H522 lung
[24] = system: 786-0 renal
[25] = system: SF-295 CNS
[26] = system: EKVX NSCLC
[27] = system: MOLT-4 leukemia
[28] = system: MALME-3M melanoma
[29] = system: NCI-H23 lung
[30] = system: OVCAR-4 ovarian
[31] = system: K-562 leukemia
[32] = system: TK-10 renal
[33] = system: UO-31 renal
[34] = system: RXF 393 renal
[35] = system: SN12C renal
[36] = system: SF-268 CNS
[37] = system: UACC-257 melanoma
[38] = system: HOP-92 NSCLC
[39] = system: BT-549 breast
[40] = system: SK-MEL-28 melanoma
[41] = system: SF-539 CNS
[42] = system: HOP-62 NSCLC
[43] = system: SNB-75 CNS
[44] = system: SK-OV-3 ovarian
[45] = system: IGROV1 ovarian
[46] = system: NCI-H460 lung
[47] = system: RPMI-8226 leukemia
[48] = system: COLO 205 colon
[49] = system: DU-145 prostate
[50] = system: UACC-62 melanoma
[51] = system: SK-MEL-2 melanoma
[52] = system: U251 CNS
[53] = system: MDA-MB-231 breast
[54] = system: PC-3 prostate
[55] = system: SR leukemia
[56] = system: HS 578T breast
[57] = system: HCT-15 colon

SMILES: O=C(Nc1cccc(-c2ccc(Cl)c(C(F)(F)F)c2)c1)C1CCN(Cc2cccc3cccnc23)CC1
- GI50 [1]: 1710 nM
- TGI [1]: 3100 nM
- GI50 [2]: 1880 nM
- TGI [2]: 3890 nM
- GI50 [3]: 1720 nM
- TGI [3]: 3170 nM
- GI50 [4]: 1530 nM
- TGI [4]: 2890 nM
- GI50 [5]: 1800 nM
- TGI [5]: 3430 nM
- GI50 [6]: 1640 nM
- TGI [6]: 3160 nM
- GI50 [7]: 1440 nM
- TGI [7]: 2950 nM
- GI50 [8]: 1770 nM
- TGI [8]: 3540 nM
- GI50 [9]: 1610 nM
- TGI [9]: 3600 nM
- GI50 [10]: 1430 nM
- TGI [10]: 2850 nM
- GI50 [11]: 1690 nM
- TGI [11]: 3310 nM
- GI50 [12]: 1500 nM
- TGI [12]: 2890 nM
- GI50 [13]: 2190 nM
- TGI [13]: 5850 nM
- GI50 [14]: 1210 nM
- TGI [14]: 3330 nM
- GI50 [15]: 1740 nM
- TGI [15]: 3180 nM
- GI50 [16]: 1910 nM
- TGI [16]: 3850 nM
- GI50 [17]: 1760 nM
- TGI [17]: 3140 nM
- GI50 [18]: 1930 nM
- TGI [18]: 4190 nM
- GI50 [19]: 1610 nM
- TGI [19]: 2970 nM
- GI50 [20]: 1330 nM
- TGI [20]: 2650 nM
- GI50 [21]: 1260 nM
- TGI [21]: 2760 nM
- GI50 [22]: 1570 nM
- TGI [22]: 2920 nM
- GI50 [23]: 1730 nM
- TGI [23]: 3680 nM
- GI50 [24]: 1700 nM
- TGI [24]: 3260 nM
- GI50 [25]: 1730 nM
- TGI [25]: 3220 nM
- GI50 [26]: 1730 nM
- TGI [26]: 3150 nM
- GI50 [27]: 1790 nM
- TGI [27]: 4520 nM
- GI50 [28]: 1650 nM
- TGI [28]: 3080 nM
- GI50 [29]: 1640 nM
- TGI [29]: 3190 nM
- GI50 [30]: 1590 nM
- TGI [30]: 3080 nM
- GI50 [31]: 1100 nM
- TGI [31]: 5990 nM
- GI50 [32]: 1630 nM
- TGI [32]: 3160 nM
- GI50 [33]: 1250 nM
- TGI [33]: 2520 nM
- GI50 [34]: 1270 nM
- TGI [34]: 2610 nM
- GI50 [35]: 1600 nM
- TGI [35]: 3030 nM
- GI50 [36]: 1790 nM
- TGI [36]: 3550 nM
- GI50 [37]: 1830 nM
- TGI [37]: 3620 nM
- GI50 [38]: 1360 nM
- TGI [38]: 2830 nM
- GI50 [39]: 1650 nM
- TGI [39]: 3180 nM
- GI50 [40]: 1750 nM
- TGI [40]: 3140 nM
- GI50 [41]: 1760 nM
- TGI [41]: 3160 nM
- GI50 [42]: 1850 nM
- TGI [42]: 3740 nM
- GI50 [43]: 1390 nM
- TGI [43]: 2710 nM
- GI50 [44]: 1760 nM
- TGI [44]: 3370 nM
- GI50 [45]: 1550 nM
- TGI [45]: 2990 nM
- GI50 [46]: 1870 nM
- TGI [46]: 3550 nM
- GI50 [47]: 2070 nM
- TGI [47]: 5400 nM
- GI50 [48]: 1450 nM
- TGI [48]: 3120 nM
- GI50 [49]: 1790 nM
- TGI [49]: 3210 nM
- GI50 [50]: 1690 nM
- TGI [50]: 3090 nM
- GI50 [51]: 1990 nM
- TGI [51]: 3850 nM
- GI50 [52]: 1710 nM
- TGI [52]: 3290 nM
- GI50 [53]: 1840 nM
- TGI [53]: 3410 nM
- GI50 [54]: 1410 nM
- TGI [54]: 2930 nM
- GI50 [55]: 1520 nM
- TGI [55]: 4490 nM
- GI50 [56]: 2140 nM
- TGI [56]: 4940 nM
- GI50 [57]: 1370 nM
- TGI [57]: 2790 nM
